What was measured:
Assay type in all cases: cell-based
Klebsiella pneumonia = test: MIC against Gram-negative bacteria: Klebsiella pneumonia; details: Klebsiella pneumonia; 96-well plate, 5×10^5 CFU/mL, 37° C., 10 h
Method in brief: (§1)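 Bacteria grown in LB at 37° C to McFarland 0.5, resuspended and seeded at 5×10^5 CFU/mL in 96-well plates. Purified human EGF-domain proteins two-fold serially diluted, triplicate wells; cultured at 37° C, shaking 175 rpm. MIC = lowest protein concentration with no growth.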

Aeromonas hydrophila = test: MIC against Gram-negative bacteria: Aeromonas hydrophila; details: Aeromonas hydrophila; 96-well plate, 5×10^5 CFU/mL, 37° C., 10 h
Method in brief: as §1

Moraxella catarrhalis = test: MIC against Gram-negative bacteria: Moraxella catarrhalis; details: Moraxella catarrhalis; 96-well plate, 5×10^5 CFU/mL, 37° C., 10 h
Method in brief: as §1

E. coli DH5α = test: Antibacterial activity: MIC and growth curve against E. coli DH5α in 96-well plate; details: minimal inhibitory concentration against E. coli DH5α; 96-well plate, 5×10^5 CFU/mL, 37° C., judged after 8 h
Method in brief: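 MIC taken as lowest protein level with no bacterial growth, tracked by A600 every 30 min during 37 °C, 175 rpm culture. Two-fold protein series 50-12.5 μg/mL final, triplicate wells, against 5×10^5 CFU/mL of LB-washed mid-log cells.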

E. coli BL21 = test: MIC against Gram-negative bacteria: E. coli BL21; details: E. coli BL21; 96-well plate, 5×10^5 CFU/mL, 37° C., 10 h
Method in brief: as §1

Serratia marcescens = test: MIC against Gram-negative bacteria: Serratia marcescens; details: Serratia marcescens; 96-well plate, 5×10^5 CFU/mL, 37° C., 10 h
Method in brief: as §1

Pseudomonas aeruginosa = test: MIC against Gram-negative bacteria: Pseudomonas aeruginosa; details: Pseudomonas aeruginosa; 96-well plate, 5×10^5 CFU/mL, 37° C., 10 h
Method in brief: as §1

Enterobacter cloacae = test: MIC against Gram-negative bacteria: Enterobacter cloacae; details: Enterobacter cloacae; 96-well plate, 5×10^5 CFU/mL, 37° C., 10 h
Method in brief: as §1

Proteus vulgaris = test: MIC against Gram-negative bacteria: Proteus vulgaris; details: Proteus vulgaris; 96-well plate, 5×10^5 CFU/mL, 37° C., 10 h
Method in brief: as §1

Citrobacter diversus = test: MIC against Gram-negative bacteria: Citrobacter diversus; details: Citrobacter diversus; 96-well plate, 5×10^5 CFU/mL, 37° C., 10 h
Method in brief: as §1

Proteus mirabilis = test: MIC against Gram-negative bacteria: Proteus mirabilis; details: Proteus mirabilis; 96-well plate, 5×10^5 CFU/mL, 37° C., 10 h
Method in brief: as §1

Row | Substance | MIC (μg/mL) K. pneumonia (Klebsiella pneumonia) | MIC (μg/mL) A. hydrophila (Aeromonas hydrophila) | MIC (μg/mL) M. catarrhalis (Moraxella catarrhalis) | MIC (E. coli DH5α) | MIC (μg/mL) E. coli BL21 (E. coli BL21) | MIC (μg/mL) S. marcescens (Serratia marcescens) | MIC (μg/mL) P. aeruginosa (Pseudomonas aeruginosa) | MIC (μg/mL) E. cloacae (Enterobacter cloacae) | MIC (μg/mL) P. vulgaris (Proteus vulgaris) | MIC (μg/mL) C. diversus (Citrobacter diversus) | MIC (μg/mL) P. mirabilis (Proteus mirabilis)
1 | PRT118 (DVDECVGPGGPLCDSLCFNTQGSFHCGCLPGWVLAPNGVSCT; listed as Homo sapiens) | 12.5 µg/mL | 12.5 µg/mL | 25 µg/mL | 12.5 µg/mL | 12.5 µg/mL | 12.5 µg/mL | 12.5 µg/mL | 12.5 µg/mL | 25 µg/mL | 12.5 µg/mL | 12.5 µg/mL
2 | PRT119 (CAPCPNNGRPTLSGTECLCVCQSGTYGENCE; listed as Homo sapiens) | 50 µg/mL | 12.5 µg/mL | 50 µg/mL | 12.5 µg/mL | 50 µg/mL | 12.5 µg/mL | 12.5 µg/mL | 25 µg/mL | 12.5 µg/mL | 25 µg/mL | 25 µg/mL
3 | PRT120 (CRPCQNGGLATVEGTHCLCHCKPYTFGAACE; listed as Homo sapiens) | 12.5 µg/mL | 12.5 µg/mL | 100 µg/mL | 12.5 µg/mL | 12.5 µg/mL | 12.5 µg/mL | 12.5 µg/mL | 12.5 µg/mL | 25 µg/mL | 12.5 µg/mL | 12.5 µg/mL
4 | PRT121 (CGPCFNNGVPILEGTSCRCQCRLGSLGAACE; listed as Homo sapiens) | 12.5 µg/mL | 12.5 µg/mL | 12.5 µg/mL | 25 µg/mL | 12.5 µg/mL | 25 µg/mL | 25 µg/mL | 50 µg/mL | 50 µg/mL | 50 µg/mL | 25 µg/mL
5 | PRT122 (CAPCQGNGVPVLKGSRCDCICPVGSQGLACE; listed as Homo sapiens) | 12.5 µg/mL | 12.5 µg/mL | 25 µg/mL | 12.5 µg/mL | 12.5 µg/mL | 12.5 µg/mL | 12.5 µg/mL | 12.5 µg/mL | 25 µg/mL | 12.5 µg/mL | 12.5 µg/mL
6 | PRT124 (ITDRCSPNMCEHDGRCYQSWDDFICYCELTGYKGETCH; listed as Homo sapiens) | 50 µg/mL | 12.5 µg/mL | 12.5 µg/mL | 12.5 µg/mL | 50 µg/mL | 12.5 µg/mL | 12.5 µg/mL | 12.5 µg/mL | 12.5 µg/mL | 12.5 µg/mL | 12.5 µg/mL
7 | PRT125 (CTGHCAHPRLPCFHGGRCVERYSYYTCDCDLTAFDGPYCN; listed as Homo sapiens) | 12.5 µg/mL | 50 µg/mL | 12.5 µg/mL | 100 µg/mL | 12.5 µg/mL | 25 µg/mL | 12.5 µg/mL | 12.5 µg/mL | 50 µg/mL | 25 µg/mL | 25 µg/mL
8 | PRT126 (IIDRCVPNHCEHGGKCSQTWDSFKCTCDETGYSGATCH; listed as Homo sapiens) | 50 µg/mL | 12.5 µg/mL | 100 µg/mL | 12.5 µg/mL | 50 µg/mL | 25 µg/mL | 12.5 µg/mL | 12.5 µg/mL | 12.5 µg/mL | 12.5 µg/mL | 25 µg/mL
9 | PRT127 (CSGHCTSYGTNCENGGKCLERYHGYSCDCSNTAYDGTFCN; listed as Homo sapiens) | 25 µg/mL | 25 µg/mL | 12.5 µg/mL | 12.5 µg/mL | 12.5 µg/mL | 12.5 µg/mL | 12.5 µg/mL | 12.5 µg/mL | 12.5 µg/mL | 12.5 µg/mL | 12.5 µg/mL
10 | PRT128 (CLPSYCEHGGECSQSWDTFSCDCLGTGYTGETC; listed as Homo sapiens) | 25 µg/mL | 12.5 µg/mL | 12.5 µg/mL | 12.5 µg/mL | 25 µg/mL | 50 µg/mL | 12.5 µg/mL | 12.5 µg/mL | 12.5 µg/mL | 12.5 µg/mL | 12.5 µg/mL
11 | PRT129 (CSTYGHLCRNGGRCREKRRGVTCDCAFSAYDGPFC; listed as Homo sapiens) | 12.5 µg/mL | 25 µg/mL | 25 µg/mL | 50 µg/mL | 12.5 µg/mL | 12.5 µg/mL | 50 µg/mL | 50 µg/mL | 12.5 µg/mL | 12.5 µg/mL | 25 µg/mL
12 | PRT130 (ITDRCLPSYCEHGGECSQSWDTFSCDCLGTGYTGETCH; listed as Homo sapiens) | 25 µg/mL | 25 µg/mL | 25 µg/mL | 12.5 µg/mL | 25 µg/mL | 12.5 µg/mL | 12.5 µg/mL | 12.5 µg/mL | 50 µg/mL | 50 µg/mL | 12.5 µg/mL
13 | PRT131 (AGHCSTYGHLCRNGGRCREKRRGVTCDCAFSAYDGPFCS; listed as Homo sapiens) | 12.5 µg/mL | 12.5 µg/mL | 25 µg/mL | 50 µg/mL | 12.5 µg/mL | 12.5 µg/mL | 12.5 µg/mL | 12.5 µg/mL | 25 µg/mL | 12.5 µg/mL | 100 µg/mL
14 | PRT132 (ISDRCLPNYCEHGGECSQSWSTFHCNCTNTGYRGATCH; listed as Homo sapiens) | 12.5 µg/mL | 50 µg/mL | 12.5 µg/mL | 25 µg/mL | 12.5 µg/mL | 12.5 µg/mL | 12.5 µg/mL | 25 µg/mL | 50 µg/mL | 25 µg/mL | 25 µg/mL
15 | PRT133 (CRGHCSSYGKLCRNGGKCRERPIGFFCDCTFSAYTGPFCS; listed as Homo sapiens) | 25 µg/mL | 25 µg/mL | 25 µg/mL | 50 µg/mL | 12.5 µg/mL | 12.5 µg/mL | 50 µg/mL | 12.5 µg/mL | 50 µg/mL | 50 µg/mL | 12.5 µg/mL
